The assay has as its system Rhipicephalus microplus. In words: Tick repellency of compounds produced on tick-resistant versus tick-susceptible cattle breeds. The conditions noted are these: compound produced on host; ticks on cattle (Nelore vs Holstein). From the text: The tick Rhipicephalus microplus specializes on cattle and other large bovids. However, success of its blood-feeding depends on the breed of the bovine host. In an indicine and a taurine breed of cattle that present contrasting phenotypes of infestation, Nelore and Holstein, respectively, resistant and susceptible to tick infestations as ascertained by the number of ticks and the reproductive success of female ticks completing their life-cycles on these two types of host.
At the same time, different levels of host immunity may affect the composition of tick saliva, contributing to these outcomes.

Molecules are shown by their SMILES.

Regarding `CC(=O)CCC=C(C)C` [6-methyl-5-hepten-2-one], the “repellency (result in words)” value is listed as “repellent”.

Values taken from patent US20210290575A1, “METHODS AND COMPOSITIONS FOR IDENTIFICATION AND MODULATION OF MICROBIOME BIOCHEMICAL PATHWAYS TO ALTER PHENOTYPE” (Cybele Microbiome, Inc., priority 2017, published 2021).
